Source: patent US20200064357A1, “METHODS FOR DETERMINING AND MONITORING GASTROINTESTINAL INFLAMMATION” (Protagonist Therapeutics, Inc., priority 2016, published 2020)
Entries after “also recorded” stand apart in the source; their conditions may differ.

Columns and labels:
[1] = tested on: Sprague-Dawley rats; experiment: Biomarkers in colon of TNBS-induced acute colitis rats (Example E1); format: in vivo, rat
Excerpt: The effect of treatment with peptide inhibitors of IL23R on inflammatory markers associated with IL23 signaling was examined in a rat model of acute colitis. Acute colitis was induced in Sprague-Dawley rats by a single intra-rectal instillation of 2,4,6-Trinitrobenzenesulfonic acid (TNBS) followed by efficacy analysis at day seven. Pharmacodynamic (PD) biomarkers were examined using enzyme-linked immunosorbent assay (ELISA), quantitative reverse transcription polymerase chain reaction, or immunohistochemistry analysis of colon, feces, or serum samples obtained from colitic rats treated with Peptide 993, Peptide 1185, or Peptide 980.
Acute colitis was induced by providing 7-week-old female Sprague-Dawley rats with various dosages of 64 mg/kg or 48 mg/kg of TNBS in 50% ethanol (TNBS/ethanol) administered intrarectally at Day 0. Peptide inhibitors were administered orally two or three times a day at various dosages and were provided in drinking water at various dosages, for 8 days starting approximately 24 hours (Day −1) prior TNBS inoculation.
Levels of a number of inflammatory biomarkers were examined in the colons. The distal colon tissue samples, designated for protein expression analysis, were flash frozen after collection. For protein extraction, the samples were thawed, weighed and homogenized in the extraction buffer (PBS pH 7.2 supplemented with Protease Inhibitors, 3× volume:weight). The homogenates were centrifuged at 13 krpm at 4° C. for 15 minutes, a total of two times to remove the debris. The supernatants were saved in multiple aliquots in −80° C. and subsequently used for protein expression analysis on ELISA. The total protein in each sample was quantified using BCA assay. MPO, IL-10, IL-6, IL-17A and IL-22 biomarker protein expression in the distal colon samples was analyzed using commercially available rat ELISA kits.

[2] = tested on: Sprague-Dawley rats; experiment: Protein biomarkers in feces, TNBS rat colitis model, ELISA (Example E2); format: in vivo; conditions: 31 mg/kg/day, normalized to total protein, vs vehicle
Protocol: The animals were grouped into sham, vehicle, and Peptide 993 treatment at 31 mg/kg/day. Feces were collected from the distal colon of rats and were immediately frozen at the time of necropsy. The feces samples were weighed and homogenized in extraction buffer (PBS pH 7.4 containing Pierce Protease Inhibitors, 3× volume:weight). The samples were incubated on ice for 90 minutes, with intermittent vortexing for complete homogenization. After centrifugation at 3000 g at 4 C, the homogenates were transferred to fresh tubes and subjected to another centrifugation at 14000 g at 4 C. The cleared supernatants were saved in multiple aliquots and stored at −80 C until analysis.
The total protein in each sample was quantified using BCA assay. LCN2, MPO, and MMP-9 protein concentration in the feces samples were analysed using commercially available rat ELISA kits. For LCN2, the samples were diluted at different ratios with assay dilution buffer to capture the large variation in concentration amongst the different treatment groups. The dilution ratios used were 1:20 (sham), 1:200, 1:1000, 1:2000, and 1:4000 (vehicle and Peptide 993).
The concentration of LCN2 was normalized to the total protein measured for the sample. […] Statistical analysis was performed using 1-Way-ANOVA with Dunnetts's multiple comparison.
Fecal homogenates were analyzed for Myeloperoxidase (MPO) concentration using the Rat MPO ELISA kit (Catalog # HK105, Hycult biotech). The samples were used at dilutions ranging from 1:20 to 1:1000, to ensure that the measurements were within the range and sensitivity of the kit. […] A linear equation was used to fit the Standard Curve and the fitting parameters were used to calculate the concentration of MPO. The concentration of MPO for each sample was normalized to the total protein measured for the sample as described above. […] Statistical analyses were performed using 1-Way-ANOVA with Dunnetts's multiple comparison.

[3] = tested on: Sprague-Dawley rats; experiment: Disease pathology in TNBS-induced rat colitis: colon weight/length, colonic score, histology (Example E4); format: in vivo
Protocol: In the first model, acute colitis was induced in Sprague-Dawley rats by a single intra-rectal instillation of TNBS followed by efficacy analysis at day seven. The animals were grouped into sham+vehicle (PO TID), TNBS+vehicle (PO TID), anti-IL23p19 antibody (4 mg/kg/day IP, Day −1 and Day 3), and Peptide 993 treatment at 9, 28, or 61 mg/kg/day (PO TID+in drinking water). Sham indicates animals not treated with TNBS.
Following treatment, weight and length were determined from entire colon; colonic score was evaluated as sum of adhesion (0-2), stricture (0-3), ulcer (0-5), and colon wall thickness (0-2); histology was evaluated by a pathologist as sum of mucosal/submucosal inflammation (0-5), transmural inflammation (0-5), erosion (0-5), and gland loss (0-5). Values shown as mean±SD (FIGS. 9A-9C). Statistical significance was assessed by One-way ANOVA with post-hoc Dunnett's vs. Vehicle control: **p≤0.01; ***p≤0.001; ****p≤0.0001; ns, not significant.

[4] = protein by ELISA, vs vehicle treated controls, Peptide 993 65 mg/kg/day
[5] = protein by ELISA, vs vehicle treated controls, Peptide 993 65 mg/kg/day, Peptide 980 37 mg/kg/day
[6] = TNBS rats, day seven, 9, 28 or 61 mg/kg/day PO TID + in drinking water, vs vehicle
[7] = acute TNBS-induced rat colitis model, oral treatment

Structure (SMILES): CC(=O)NC(CCCNC(=N)N)C(=O)NC1CCSCC(C(=O)NC(Cc2ccc(OCCN)cc2)C(=O)NC(Cc2ccc3ccccc3c2)C(=O)NC2(C(=O)NC(CCC(=O)O)C(=O)NC(CC(N)=O)C(=O)NC(CC(N)=O)C(N)=O)CCOCC2)NC(=O)C(CCC(N)=O)NC(=O)C(Cc2c[nH]c3ccccc23)NC(=O)C(C(C)O)NC(=O)C(CCC(N)=O)NC1=O (centres unmarked) [Peptide 993, Ac-[(D)-Arg]-cyclo[[Abu]-QTWQC]-[Phe[4-(2-aminoethoxy)]]-[2-Nal]-[4-amino-4-carboxy-tetrahydropyran]-ENN-NH2]
- IL-1β gene expression level, distal colon ([1]; data not shown, trend similar to the protein reduction): but not IL-1β
- IL-1β level in colon [1, 4]: reduced
- IL-6 level in colon [1, 4]: reduced
- IL-17A level in colon [1, 4]: reduced
- IL-22 level in colon [1, 5]: reduced
- MPO level in colon [1, 5]: reduced
- fecal LCN2 concentration [2]: statistically significant decrease; also recorded: stastically significant decrease
- fecal MMP-9 concentration [2]: stastically significant decrease
- fecal MPO concentration [2]: statistically significant decrease; also recorded: stastically significant decrease
- colon weight-to-length ratio [3, 6]: significant and dose-dependent reduction
- histopathological changes in the colon [3, 6]: normalization
- macroscopic changes in the colon (colonic score) [3, 6]: normalization
- activity compared with neutralizing anti-IL-23p19 monoclonal antibody (4 mg/kg/day IP) [3, 7]: comparable
- disease parameters [3, 7]: significant and dose-dependent attenuation
